# Results: article PMC10492782, “Exploiting the aggregation propensity of beta-lactamases to design inhibitors that induce enzyme misfolding” (Nature Communications, 2023)
# Values joined by “and” are separate entries in the source; they are usually repeats but may differ in a detail not shown here. Equal values may be shown once.
# Columns and labels:
# [1] = Dynamic Light Scattering of peptide (hydrodynamic radius); format: physicochemical
# Method: (§1) Fig. 4 Aggregation kinetics of TEM and SHV proteins and peptides. A Measurements of the hydrodynamic radius by Dynamic Light Scattering of 50 μM TEM3.2 in buffer alone, or in the presence of LPS or polyphosphate (PolyP). […] C Transmission Electron Micrograph of 50 μM TEM 3.2 incubated for 24 h in the same buffer as A with polyP, negatively stained with 2% (w/v) uranyl acetate. A single representative image is shown. […] Three replicates are shown for each condition. E Aggregation kinetics using pFTAA fluorescence emission of recombinantly purified TEM-1, in the presence of vehicle, or TEM 3.2 peptin, as well as peptin-only control. F Similar as in E, but using an off-target Pept-In, based on an APR sequence of beta-galactosidase. G Similar to E, but now using a previously published off-target Pept-In, based on an APR of HcaB. The plots are the results of a single experiment, all replicates are shown. Source data are provided as a Source Data file.
# (§2) A DynaPro DLS plate reader instrument (Wyatt, Santa Barbara, CA, USA) equipped with an 830 nm laser source was used to determine the hydrodynamic radius (RH) of the peptide particles. […] The autocorrelation of scattered light intensity at a 32° angle was recorded for 5 s and averaged over 20 recordings to obtain a single data point. […]
# [2] = Thioflavin-T aggregation kinetics and electron microscopy of peptide; format: physicochemical; settings: 50 μM peptide with polyphosphate; EM after 24 h incubation at RT
# Method: as §1, §2
# [3] = pFTAA fluorescence of peptide aggregates; format: physicochemical; settings: 50 μM peptide, PolyP condition
# Method: as §1
# E. coli UZ_TEM104 = assay: FACS with pFTAA (aggregation) and propidium iodide (cell death); format: cell-based, Escherichia coli
# Method: Fig. 6 Uptake and inclusion body formation upon peptide treatment. Fluorescence-activated cell-sorting (FACS) (A) of E. coli strain UZ_TEM104 mixed 50–50% with the same strain after heat-inactivation. The cells were stained with pFTAA to monitor aggregation and propidium iodide (PI) to monitor cell permeabilization associated with cell death. 10^6 cells were analyzed for the plot. […] B Similar FACS analysis as in A, but with a sample of live bacteria only. […] Note: the horizontal and vertical lines correspond to the gatings used to obtain the quantifications shown in the corners of each image.
# Treated bacteria were washed with PBS buffer two times. One microliter of PI (Invitrogen) was added to the bacteria and incubated for 5 min. The bacteria were counted by FACS to reach 40000 events. To correlate the activity of the peptides with cell death, the fluorescence intensity was measured in two channels using the Gallios^TM Flow Cytometer (Beckman Coulter, USA), PI: excitation 536 nm and emission 617 nm, FITC: excitation 490 nm and emission 525 nm. Heated bacteria at 90 °C for 10 min were used as PI-positive control.
# The bacterial cultures were washed with PBS, and the number of bacteria was adjusted to 10^8–10^9 cells/mL. […] Then, cells were treated with LCO dyes (pFTAA; Amytacker^TM680 or Amytacker^TM545: final concentration of 0.5 µM; Ebba Biotech, Sweden) for at least 90 min. The absorption, emission, and excitation spectra for each dye were measured based on the standard Ebbabiotec advice (ebbabiotech.com).
# [4] = system: uro-pathogenic E. coli strain (UPEC strain blaTEM-1); assay: Urinary tract infection model, bacterial load in bladder, kidney, ureter; format: in vivo, female C57BL/6JAX mice; set-up: bacterial load, Ureters / bacterial load, Bladder / bacterial load, Kindey: unit: CFU per mL of tissue extract; settings: each column one mouse
# Method: Fig. 7 Evaluation of in vivo use of peptides that induce the aggregation of TEM beta-lactamase. A Lysis of human erythrocytes (hemolysis) was assessed in the presence of the indicated concentrations of TEM3.2 for 2 h at 37 °C, and normalized to the value obtained with 1% of the detergent triton. […] B Cell viability using the CellTiter Blue assay of HeLa cells treated for 24 h with the indicated concentrations TEM 3.2 at 37 °C. […] DAPI (4’,6-diamidino-2-phenylindole) is blue, while CellMask is red. D Experimental workflow of the in vivo model used in this study. E–G Bacterial load of indicated organs of female C57BL/6JAX mice with a urinary tract infection with E. coli strain UZ_TEM104, treated with 30 mg/kg penicillin (oral) as well 10 mg/kg tazobactam (oral) or 10 mg/kg TEM3.2 via the indicated treatment route. IV intravenous, IP intraperitoneal, SC subcutaneously. The data shown is from a single experiment with 12 animals for each group. The result for each animal is shown as a dot. […] The statistically significant differences were determined using ANOVA, followed by Dunnett’s multiple comparison test. […] Source data are provided as a Source Data file.
# We also performed a tolerability study using a dose escalation method by administering the peptide at 2, 5, 10, 15, and 20 mg/kg via different parenteral routes: intravenous (IV), intraperitoneal (IP), and subcutaneous (SC) in female C57BL/6JAX mice, aged 8–10 weeks (Suppl Table 4). […] Vehicle alone (0.9% NaCl) was also administered (IV). After 24 h the animals were sacrificed and the bacterial load in the bladder, kidney, and ureter was quantified by determining the number of colony-forming units (CFU) per mL of tissue extract (Fig. 7E–G).
# To test the efficacy of the peptides, a urinary tract infection model was performed as described previously. Briefly, female C57BL/6Jax mice female mice were deprived of water for at least 1 h. Then, they were anesthetized by IP administration of the mixture of ketamine (Nimatek)/xylazine (XYL-M 2% BE-V170581). The bladder of the mouse was massaged with fingers and pushed down gently to expel the remaining urine. Mice were slowly inoculated urethrally with 50 µL of a bacterial suspension slowly over 5 s to avoid vesicoureteral reflux (10^8 CFU/ mouse) using a sterile catheter (pediatric intravenous-access cannula (GS391350)). The catheter was removed directly after inoculation. After surgery, the animals were visually monitored for full recovery. After 1 h post inoculation, all mice received Ampicillin (30 mg/kg_PO-orally) and at the same time 3 groups of animals received the peptides via different administration routes (10 mg/kg_IV—intravenous; IP—intraperitoneal or SC—sub-cutaneous) and the positive control groups received tazobactam (10 mg/kg, PO). The negative control groups received vehicle or saline (IV administration). 2 h post inoculation, all mice received a second injection with the same concentration of each treatment as explained above. Twenty-four hours post-infection, mice were sacrificed and organs (kidney, bladder, ureter) were washed with PBS and were homogenized (Thermo Savant FastPrep FP120 Homogenizer/24 s). The homogenized tissues were serially diluted and cultured on blood agar plates. The plates were incubated overnight at 37 °C, and the number of bacteria was measured by CFU value.
# [5] = system: primary Human Umbilical Vein Endothelial Cells (HUVEC); settings: 24 h, 400 to 12.5 µg/mL
# Method: The Cell Titer Blue assay was performed to evaluate the cell viability according to the instructions of the manufacturer (Promega, USA). The peptide treatments were done in DMEM medium without serum. Briefly, cells were seeded to approximately 20,000 mammalian cells per well in a 96-well flat-bottom plate (BD Biosciences 353075) and incubated at 37 °C with 5% CO2 and 90% humidity. Peptides were diluted in cell medium, and cells were treated for 24 h. 20 μL of the CellTiter Blue reagent was added to each well and the plate was incubated for 1 h at 37 °C. The fluorescence was measured at 590 nm by exciting at 560 nm with a ClarioStar plate reader (BMG Labtech, Germany).
substance,measurement,setting,value
Ac-RLTAFLHNRRPRLTAFLRQRR-NH2 [TEM3.2],solubility by Dynamic Light Scattering (in words),[1]; 50 μM peptide in buffer alone,soluble in vitro
same,aggregation by Dynamic Light Scattering (in words),[1]; 50 μM peptide in the presence of LPS or polyphosphate (PolyP),aggregates readily when triggered by appropriate interactions
same,Thioflavin T binding and Transmission Electron Microscopy (in words),[2],amyloid-like aggregation in the presence of polyphosphate
same,pFTAA staining of fibrils (in words),[3],stain positive for pentameric formyl thiophene acetic acid (pFTAA)
same,cells with non-lethal aggregation (pFTAA shift),"E. coli UZ_TEM104; 50 μg/mL TEM3.2, 4 h in PBS",> 99%
same,shift in pFTAA and PI channels (in words),"E. coli UZ_TEM104; 4 h, penicillin G 400 μg/mL and/or TEM3.2 50 μg/mL",a shift of the bacterial population only in the pFTAA channel
same,"bacterial load, Bladder",[4]; group IP,833.333 (2×) and 4533.33 and 14866.7 and 4066.67 and 2533.33 and 900 and 1 (2×) and 37733.3 and 300 (2×)
same,"bacterial load, Kindey",[4]; group IP,3566.67 and 133.333 and 27833.3 and 2666.67 and 1 (5×) and 4300 and 1700 and 2600
same,"bacterial load, Ureters",[4]; group IP,6333.33 and 33.3333 and 9933.33 and 233.333 and 1 (5×) and 1166.67 and 133.333 and 2500
same,"bacterial load, Bladder",[4]; group IV,9200 and 1 (3×) and 6366.67 and 4033.33 and 1500 and 566.667 and 2833.33 and 266.667 and 66.6667 and 1833.33
same,"bacterial load, Kindey",[4]; group IV,1333.33 and 50433.3 and 24133.3 and 22233.3 and 400 (2×) and 1 (2×) and 29 and 6466.67 and 333.333 and 1900
same,"bacterial load, Ureters",[4]; group IV,10766.7 and 11733.3 and 2766.67 and 2633.33 and 1 (4×) and 15700 and 9366.67 and 766.667 and 233.333
same,"bacterial load, Bladder",[4]; group Sub,20866.7 and 166.667 and 3866.67 and 32100 and 933.333 and 300 and 1 (2×) and 1600 and 1500 and 366.667 and 133.333
same,"bacterial load, Kindey",[4]; group Sub,18933.3 and 1 (6×) and 5766.67 and 66.6667 and 3300 and 4300 and 466.667
same,"bacterial load, Ureters",[4]; group Sub,5500 and 1 (6×) and 5866.67 and 13433.3 and 2800 and 333.333 and 900
same,"cytotoxicity, Cell Titer Blue (in words)",[5],not cytotoxic
